These results are taken from patent publication US7459466B2, “Substituted 2-(2,6-dioxopiperidin-3-yl)-phthalimides and -1-oxoisoindolines and method of reducing TNFα levels” (Celgene Corporation, priority 1997, dated 2008).

In general, melting point refers to the temperature of the solid-liquid transition.

In turn, `CC1(N2C(=O)c3cccc(N)c3C2=O)CCC(=O)NC1=O` (stereo not shown) [Example 7, 3-(3-Aminophthalimido)-3-methyl-piperidine-2,6-dione] returned a melting point of 268 to 269 °C.
